Results reported in PubChem BioAssay AID256 (DTP/NCI, 2004).
Toxic doses and inconclusive results are not listed.

Tested on: CD2F1 mice, L1210 leukemia ip, survival T/C
Assay: NCI In Vivo Anticancer Drug Screen. Data for tumor model L1210 Leukemia (intraperitoneal) in CD2F1 (CDF1) mice
Settings: endpoint: mean survival time, higher = longer survival
Summary of the method: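 Each value reflects a quotient of treated over vehicle control outcomes in mice with a transplanted tumor.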

[1] = dose: 100.0 mg/kg/injection, schedule: Q04DX003 (ip), vehicle: saline with Tween-80
[2] = dose: 200.0 mg/kg/injection, schedule: Q04DX003 (ip), vehicle: saline with Tween-80
[3] = dose: 400.0 mg/kg/injection, schedule: Q04DX003 (ip), vehicle: saline with Tween-80
[4] = dose: 100.0 mg/kg/injection, schedule: Q01DX009 (ip), vehicle: saline with Tween-80
[5] = dose: 200.0 mg/kg/injection, schedule: Q01DX009 (ip), vehicle: saline with Tween-80
[6] = dose: 400.0 mg/kg/injection, schedule: Q01DX009 (ip), vehicle: saline with Tween-80

With `CS(=O)(=O)OCCC(=O)N1CCN(C(=O)CCOS(C)(=O)=O)CC1` the T/C (dose: 4.0 mg/kg/injection, schedule: Q03HX024 (oral), vehicle: saline) was 97 % of control, the T/C (dose: 8.0 mg/kg/injection, schedule: Q03HX008 (ip), vehicle: saline) was 120 % of control and the T/C (dose: 8.0 mg/kg/injection, schedule: Q03HX008 (oral), vehicle: saline) was 93 % of control. The T/C (dose: 8.0 mg/kg/injection, schedule: Q03HX016 (oral), vehicle: saline) was 94 % of control, the T/C (dose: 8.0 mg/kg/injection, schedule: Q03HX024 (oral), vehicle: saline) was 100 % of control and the T/C (dose: 16.0 mg/kg/injection, schedule: Q01DX009 (oral), vehicle: saline) was 101 % of control. The T/C (dose: 16.0 mg/kg/injection, schedule: Q03HX008 (oral), vehicle: saline) was 96 % of control, the T/C (dose: 16.0 mg/kg/injection, schedule: Q03HX016 (ip), vehicle: saline) was 169 % of control and the T/C (dose: 16.0 mg/kg/injection, schedule: Q03HX016 (oral), vehicle: saline) was 100 % of control. The T/C (dose: 16.0 mg/kg/injection, schedule: Q03HX024 (ip), vehicle: saline) was 200 % of control, the T/C (dose: 16.0 mg/kg/injection, schedule: Q03HX024 (oral), vehicle: saline) was 109 % of control and the T/C (dose: 32.0 mg/kg/injection, schedule: Q01DX009 (ip), vehicle: saline) was 165 % of control. For the same compound, the T/C (dose: 32.0 mg/kg/injection, schedule: Q01DX009 (oral), vehicle: saline) was 103 % of control, the T/C (dose: 32.0 mg/kg/injection, schedule: Q03HX008 (ip), vehicle: saline) was 182 % of control and the T/C (dose: 32.0 mg/kg/injection, schedule: Q03HX008 (oral), vehicle: saline) was 102 % of control. The T/C (dose: 32.0 mg/kg/injection, schedule: Q03HX016 (ip), vehicle: saline) was 207 % of control, the T/C (dose: 32.0 mg/kg/injection, schedule: Q03HX016 (oral), vehicle: saline) was 95 % of control and the T/C (dose: 32.0 mg/kg/injection, schedule: Q03HX024 (ip), vehicle: saline) was 168 % of control. For the same compound, the T/C (dose: 32.0 mg/kg/injection, schedule: Q03HX024 (oral), vehicle: saline) was 114 % of control, the T/C (dose: 32.0 mg/kg/injection, schedule: Q04DX003 (oral), vehicle: saline) was 100 % of control and the T/C (dose: 64.0 mg/kg/injection, schedule: Q01DX001 (oral), vehicle: saline) was 98 % of control. For the same compound, the T/C (dose: 64.0 mg/kg/injection, schedule: Q01DX009 (ip), vehicle: saline) was 208 % of control, the T/C (dose: 64.0 mg/kg/injection, schedule: Q01DX009 (oral), vehicle: saline) was 105 % of control and the T/C (dose: 64.0 mg/kg/injection, schedule: Q03HX008 (oral), vehicle: saline) was 106 % of control. The T/C (dose: 64.0 mg/kg/injection, schedule: Q03HX016 (ip), vehicle: saline) was 103 % of control, the T/C (dose: 64.0 mg/kg/injection, schedule: Q03HX016 (oral), vehicle: saline) was 97 % of control and the T/C (dose: 64.0 mg/kg/injection, schedule: Q04DX003 (oral), vehicle: saline) was 105 % of control. The T/C (dose: 64.0 mg/kg/injection, schedule: Q08DX002 (oral), vehicle: saline) was 92 % of control, the T/C (dose: 128.0 mg/kg/injection, schedule: Q01DX001 (oral), vehicle: saline) was 98 % of control and the T/C (dose: 128.0 mg/kg/injection, schedule: Q01DX009 (ip), vehicle: saline) was 124 % of control. For the same compound, the T/C (dose: 128.0 mg/kg/injection, schedule: Q01DX009 (oral), vehicle: saline) was 110 % of control, the T/C (dose: 128.0 mg/kg/injection, schedule: Q04DX003 (ip), vehicle: saline) was 193 % of control and the T/C (dose: 128.0 mg/kg/injection, schedule: Q04DX003 (oral), vehicle: saline) was 95 % of control. The T/C (dose: 128.0 mg/kg/injection, schedule: Q08DX002 (ip), vehicle: saline) was 194 % of control, the T/C (dose: 128.0 mg/kg/injection, schedule: Q08DX002 (oral), vehicle: saline) was 90 % of control and the T/C (dose: 256.0 mg/kg/injection, schedule: Q01DX001 (ip), vehicle: saline) was 166 % of control. The T/C (dose: 256.0 mg/kg/injection, schedule: Q01DX001 (oral), vehicle: saline) was 94 % of control, the T/C (dose: 256.0 mg/kg/injection, schedule: Q01DX009 (oral), vehicle: saline) was 110 % of control and the T/C (dose: 256.0 mg/kg/injection, schedule: Q04DX003 (ip), vehicle: saline) was 181 % of control. The T/C (dose: 256.0 mg/kg/injection, schedule: Q04DX003 (oral), vehicle: saline) was 100 % of control, the T/C (dose: 256.0 mg/kg/injection, schedule: Q08DX002 (ip), vehicle: saline) was 228 % of control and the T/C (dose: 256.0 mg/kg/injection, schedule: Q08DX002 (oral), vehicle: saline) was 96 % of control. The T/C (dose: 512.0 mg/kg/injection, schedule: Q01DX001 (ip), vehicle: saline) was 89 % of control, the T/C (dose: 512.0 mg/kg/injection, schedule: Q01DX001 (oral), vehicle: saline) was 96 % of control and the T/C (dose: 512.0 mg/kg/injection, schedule: Q04DX003 (ip), vehicle: saline) was 103 % of control. The T/C (dose: 512.0 mg/kg/injection, schedule: Q08DX002 (oral), vehicle: saline) was 94 % of control.
In the case of `CCCCC(C)(C)C`, the T/C [1] is reported as 99 % of control, the T/C [2] is reported as 99 % of control and the T/C [3] is reported as 114 % of control.
With `COc1ccc2c(c1)c(C(=O)O)cc(=O)n2C` the T/C (dose: 100.0 mg/kg/injection, schedule: Q01DX009 (ip), vehicle: saline sonified) was 101 % of control, the T/C [1] was 97 % of control and the T/C (dose: 200.0 mg/kg/injection, schedule: Q01DX009 (ip), vehicle: saline sonified) was 95 % of control. The T/C [2] was 102 % of control, the T/C (dose: 400.0 mg/kg/injection, schedule: Q01DX009 (ip), vehicle: saline sonified) was 95 % of control and the T/C [3] was 96 % of control.
`Cc1cccc(N(C)C(=S)Oc2ccc3ccccc3c2)c1` was tested, and the T/C (dose: 50.0 mg/kg/injection, schedule: Q01DX009 (ip), vehicle: Klucel (hydroxypropylcellulose) (HPC)) was 112 % of control, the T/C (dose: 100.0 mg/kg/injection, schedule: Q01DX009 (ip), vehicle: Klucel (hydroxypropylcellulose) (HPC)) was 89 % of control and the T/C (dose: 200.0 mg/kg/injection, schedule: Q01DX009 (ip), vehicle: Klucel (hydroxypropylcellulose) (HPC)) was 89 % of control.
In the case of `O=[N+]([O-])c1ccc(C(O)C(Br)[N+](=O)[O-])cc1` (stereo not given), the T/C [4] is reported as 93 % of control, the T/C [1] is reported as 101 % of control and the T/C [5] is reported as 94 % of control. The T/C [2] was 98 % of control, the T/C [6] was 87 % of control and the T/C [3] was 95 % of control.
For `O=C(O/N=C(\c1ccccc1)c1cccs1)N(c1ccccc1)c1ccccc1`, the T/C (dose: 100.0 mg/kg/injection, schedule: Q01DX001 (ip), vehicle: other) was 92 % of control, the T/C (dose: 200.0 mg/kg/injection, schedule: Q01DX001 (ip), vehicle: other) was 98 % of control and the T/C (dose: 400.0 mg/kg/injection, schedule: Q01DX001 (ip), vehicle: other) was 92 % of control.
In the case of `CC(c1ccc2ccccc2c1)C1CCCCC1C(=O)O` (stereo not given), the T/C [4] is reported as 102 % of control, the T/C [5] is reported as 100 % of control and the T/C [6] is reported as 97 % of control.
For `O=C(O)CCCCc1ccccc1`, the T/C [4] was 93 % of control, the T/C [1] was 106 % of control and the T/C [5] was 98 % of control. The T/C [2] was 92 % of control, the T/C [6] was 102 % of control and the T/C [3] was 106 % of control.
For `COc1ccc(C(C#N)C(CC(=O)c2ccccc2)c2ccccc2)cc1` (stereo not given), the T/C (dose: 100.0 mg/kg/injection, schedule: Q04DX002 (ip), vehicle: saline with Tween-80) was 98 % of control, the T/C (dose: 200.0 mg/kg/injection, schedule: Q04DX002 (ip), vehicle: saline with Tween-80) was 91 % of control and the T/C (dose: 400.0 mg/kg/injection, schedule: Q04DX002 (ip), vehicle: saline with Tween-80) was 87 % of control.
In the case of `COc1ccc(Cl)cc1NC(=O)N/N=C(\C)CC(C)C`, the T/C (dose: 100.0 mg/kg/injection, schedule: Q01DX001 (ip), vehicle: saline with Tween-80) is reported as 105 % of control, the T/C (dose: 200.0 mg/kg/injection, schedule: Q01DX001 (ip), vehicle: saline with Tween-80) is reported as 95 % of control and the T/C (dose: 400.0 mg/kg/injection, schedule: Q01DX001 (ip), vehicle: saline with Tween-80) is reported as 101 % of control.
In the case of `O=C(CNCc1ccccc1)c1ccccc1`, the T/C [1] is reported as 94 % of control, the T/C [2] is reported as 96 % of control and the T/C [3] is reported as 93 % of control.
With `O=C(O/N=C(\CN1CCOCC1)c1ccc(Cl)cc1)c1ccccc1` the T/C (dose: 100.0 mg/kg/injection, schedule: Q04DX003 (ip), vehicle: Klucel (hydroxypropylcellulose) (HPC)) was 86 % of control, the T/C (dose: 200.0 mg/kg/injection, schedule: Q04DX003 (ip), vehicle: Klucel (hydroxypropylcellulose) (HPC)) was 90 % of control and the T/C (dose: 400.0 mg/kg/injection, schedule: Q04DX003 (ip), vehicle: Klucel (hydroxypropylcellulose) (HPC)) was 94 % of control.
With `CCOC(=O)CN(CC(=O)OCC)c1ccc(C(C)=O)cc1` the T/C (dose: 100.0 mg/kg/injection, schedule: Q04DX003 (ip), vehicle: saline) was 105 % of control and the T/C (dose: 200.0 mg/kg/injection, schedule: Q04DX003 (ip), vehicle: saline) was 94 % of control.
